{"source": "patent US20050256301A1", "about": "(The University of Queensland, priority 1998, published 2005)", "key": {"[1]": {"molecular_target": "T1, N-type voltage-sensitive calcium channels (Rattus norvegicus, UniProt Q02294)", "T1 construct": "Rats were sacrificed by cervical dislocation and their brains removed and immediately frozen in liquid nitrogen; from tissue; host or cells: rat brain membrane", "T1 sequence (Q02294 whole entry, looked up)": "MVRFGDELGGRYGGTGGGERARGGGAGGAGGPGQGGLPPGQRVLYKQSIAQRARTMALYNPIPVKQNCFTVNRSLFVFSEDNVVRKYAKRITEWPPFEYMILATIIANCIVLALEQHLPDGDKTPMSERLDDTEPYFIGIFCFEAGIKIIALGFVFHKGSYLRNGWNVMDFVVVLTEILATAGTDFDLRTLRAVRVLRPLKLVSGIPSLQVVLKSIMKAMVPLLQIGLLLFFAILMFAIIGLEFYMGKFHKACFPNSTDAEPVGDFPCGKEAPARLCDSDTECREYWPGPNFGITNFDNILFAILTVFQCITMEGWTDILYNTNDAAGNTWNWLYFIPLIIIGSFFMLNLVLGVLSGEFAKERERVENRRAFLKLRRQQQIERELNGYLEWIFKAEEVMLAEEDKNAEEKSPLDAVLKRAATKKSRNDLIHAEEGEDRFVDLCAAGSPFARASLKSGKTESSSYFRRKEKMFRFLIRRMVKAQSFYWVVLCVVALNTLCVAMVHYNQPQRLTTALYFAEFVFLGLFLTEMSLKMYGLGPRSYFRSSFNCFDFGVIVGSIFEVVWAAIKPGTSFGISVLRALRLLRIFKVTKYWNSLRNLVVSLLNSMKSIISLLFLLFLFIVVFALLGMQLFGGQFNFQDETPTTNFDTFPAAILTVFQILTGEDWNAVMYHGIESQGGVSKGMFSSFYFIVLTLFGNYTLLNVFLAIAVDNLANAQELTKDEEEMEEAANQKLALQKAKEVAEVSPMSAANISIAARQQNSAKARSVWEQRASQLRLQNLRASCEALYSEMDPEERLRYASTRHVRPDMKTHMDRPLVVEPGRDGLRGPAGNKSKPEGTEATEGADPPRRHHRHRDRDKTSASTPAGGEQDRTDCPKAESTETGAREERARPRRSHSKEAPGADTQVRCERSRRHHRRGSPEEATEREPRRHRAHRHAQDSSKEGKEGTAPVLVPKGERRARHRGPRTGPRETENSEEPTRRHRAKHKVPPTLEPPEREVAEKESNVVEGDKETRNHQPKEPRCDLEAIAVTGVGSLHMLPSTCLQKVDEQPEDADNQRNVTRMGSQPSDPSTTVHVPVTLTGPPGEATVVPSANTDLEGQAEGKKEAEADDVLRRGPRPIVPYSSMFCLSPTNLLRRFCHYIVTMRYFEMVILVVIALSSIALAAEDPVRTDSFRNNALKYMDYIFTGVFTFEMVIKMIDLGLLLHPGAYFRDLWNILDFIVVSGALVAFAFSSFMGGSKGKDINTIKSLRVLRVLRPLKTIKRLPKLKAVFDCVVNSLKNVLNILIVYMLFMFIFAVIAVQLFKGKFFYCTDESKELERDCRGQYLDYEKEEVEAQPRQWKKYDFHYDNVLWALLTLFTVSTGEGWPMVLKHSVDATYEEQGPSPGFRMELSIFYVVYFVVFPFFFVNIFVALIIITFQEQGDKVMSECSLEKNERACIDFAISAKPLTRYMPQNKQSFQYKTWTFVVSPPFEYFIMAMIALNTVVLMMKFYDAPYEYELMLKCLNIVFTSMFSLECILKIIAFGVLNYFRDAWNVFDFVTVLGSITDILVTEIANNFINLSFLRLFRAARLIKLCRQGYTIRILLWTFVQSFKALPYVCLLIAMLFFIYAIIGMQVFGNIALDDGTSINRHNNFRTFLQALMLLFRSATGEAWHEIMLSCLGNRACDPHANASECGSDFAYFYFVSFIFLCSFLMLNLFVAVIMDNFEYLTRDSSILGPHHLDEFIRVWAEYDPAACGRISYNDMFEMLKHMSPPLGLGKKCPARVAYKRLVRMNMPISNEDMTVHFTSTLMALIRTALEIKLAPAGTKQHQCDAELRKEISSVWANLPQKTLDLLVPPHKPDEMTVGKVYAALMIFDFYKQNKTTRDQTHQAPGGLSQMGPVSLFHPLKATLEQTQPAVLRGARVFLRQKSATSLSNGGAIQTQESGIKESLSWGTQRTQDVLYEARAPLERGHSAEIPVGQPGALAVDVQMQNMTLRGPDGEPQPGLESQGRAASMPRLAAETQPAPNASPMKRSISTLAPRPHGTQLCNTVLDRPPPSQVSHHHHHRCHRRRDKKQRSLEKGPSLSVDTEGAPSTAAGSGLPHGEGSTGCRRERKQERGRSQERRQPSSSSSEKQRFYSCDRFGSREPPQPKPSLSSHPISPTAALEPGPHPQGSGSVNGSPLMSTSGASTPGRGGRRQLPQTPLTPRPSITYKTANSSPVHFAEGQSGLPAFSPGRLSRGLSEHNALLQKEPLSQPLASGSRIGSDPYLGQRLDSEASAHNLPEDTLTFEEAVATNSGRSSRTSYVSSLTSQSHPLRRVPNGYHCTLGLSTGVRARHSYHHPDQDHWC", "assay_type": "binding"}, "[2]": {"tested_on": "bovine adrenal chromaffin cells", "assay_type": "cell-based"}, "[3]": {"molecular_target": "human noradrenaline transporter (NET) (human) (UniProt P23975)", "sequence (P23975 whole entry)": "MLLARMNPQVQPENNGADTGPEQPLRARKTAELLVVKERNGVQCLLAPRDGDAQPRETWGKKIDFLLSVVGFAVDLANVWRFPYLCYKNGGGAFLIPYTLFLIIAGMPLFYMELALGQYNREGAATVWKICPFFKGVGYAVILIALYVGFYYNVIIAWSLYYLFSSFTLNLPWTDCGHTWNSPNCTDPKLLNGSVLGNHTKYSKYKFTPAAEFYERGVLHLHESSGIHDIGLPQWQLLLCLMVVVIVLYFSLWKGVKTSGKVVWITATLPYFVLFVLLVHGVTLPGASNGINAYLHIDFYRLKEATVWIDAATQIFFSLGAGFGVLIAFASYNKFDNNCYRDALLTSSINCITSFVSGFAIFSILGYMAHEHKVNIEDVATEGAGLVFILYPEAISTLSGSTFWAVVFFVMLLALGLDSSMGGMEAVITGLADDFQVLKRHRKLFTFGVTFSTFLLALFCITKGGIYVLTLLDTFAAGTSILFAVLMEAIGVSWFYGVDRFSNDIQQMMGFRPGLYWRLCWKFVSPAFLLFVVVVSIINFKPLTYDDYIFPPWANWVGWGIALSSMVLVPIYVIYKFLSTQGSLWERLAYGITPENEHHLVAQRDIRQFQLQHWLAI", "experiment": "displacement of [3H]nisoxetine from COS-7 hNET membranes"}, "[4]": {"molecular_target": "human noradrenaline transporter (NET) (human) (UniProt P23975)", "experiment": "displacement of [3H]nisoxetine from COS-7 hNET membranes", "remark": "listed apart in the source"}, "P/Q type Ca channels": {"molecular_target": "P/Q type Ca channels (Rattus norvegicus, UniProt P54282)", "sequence (P54282 whole entry, looked up)": "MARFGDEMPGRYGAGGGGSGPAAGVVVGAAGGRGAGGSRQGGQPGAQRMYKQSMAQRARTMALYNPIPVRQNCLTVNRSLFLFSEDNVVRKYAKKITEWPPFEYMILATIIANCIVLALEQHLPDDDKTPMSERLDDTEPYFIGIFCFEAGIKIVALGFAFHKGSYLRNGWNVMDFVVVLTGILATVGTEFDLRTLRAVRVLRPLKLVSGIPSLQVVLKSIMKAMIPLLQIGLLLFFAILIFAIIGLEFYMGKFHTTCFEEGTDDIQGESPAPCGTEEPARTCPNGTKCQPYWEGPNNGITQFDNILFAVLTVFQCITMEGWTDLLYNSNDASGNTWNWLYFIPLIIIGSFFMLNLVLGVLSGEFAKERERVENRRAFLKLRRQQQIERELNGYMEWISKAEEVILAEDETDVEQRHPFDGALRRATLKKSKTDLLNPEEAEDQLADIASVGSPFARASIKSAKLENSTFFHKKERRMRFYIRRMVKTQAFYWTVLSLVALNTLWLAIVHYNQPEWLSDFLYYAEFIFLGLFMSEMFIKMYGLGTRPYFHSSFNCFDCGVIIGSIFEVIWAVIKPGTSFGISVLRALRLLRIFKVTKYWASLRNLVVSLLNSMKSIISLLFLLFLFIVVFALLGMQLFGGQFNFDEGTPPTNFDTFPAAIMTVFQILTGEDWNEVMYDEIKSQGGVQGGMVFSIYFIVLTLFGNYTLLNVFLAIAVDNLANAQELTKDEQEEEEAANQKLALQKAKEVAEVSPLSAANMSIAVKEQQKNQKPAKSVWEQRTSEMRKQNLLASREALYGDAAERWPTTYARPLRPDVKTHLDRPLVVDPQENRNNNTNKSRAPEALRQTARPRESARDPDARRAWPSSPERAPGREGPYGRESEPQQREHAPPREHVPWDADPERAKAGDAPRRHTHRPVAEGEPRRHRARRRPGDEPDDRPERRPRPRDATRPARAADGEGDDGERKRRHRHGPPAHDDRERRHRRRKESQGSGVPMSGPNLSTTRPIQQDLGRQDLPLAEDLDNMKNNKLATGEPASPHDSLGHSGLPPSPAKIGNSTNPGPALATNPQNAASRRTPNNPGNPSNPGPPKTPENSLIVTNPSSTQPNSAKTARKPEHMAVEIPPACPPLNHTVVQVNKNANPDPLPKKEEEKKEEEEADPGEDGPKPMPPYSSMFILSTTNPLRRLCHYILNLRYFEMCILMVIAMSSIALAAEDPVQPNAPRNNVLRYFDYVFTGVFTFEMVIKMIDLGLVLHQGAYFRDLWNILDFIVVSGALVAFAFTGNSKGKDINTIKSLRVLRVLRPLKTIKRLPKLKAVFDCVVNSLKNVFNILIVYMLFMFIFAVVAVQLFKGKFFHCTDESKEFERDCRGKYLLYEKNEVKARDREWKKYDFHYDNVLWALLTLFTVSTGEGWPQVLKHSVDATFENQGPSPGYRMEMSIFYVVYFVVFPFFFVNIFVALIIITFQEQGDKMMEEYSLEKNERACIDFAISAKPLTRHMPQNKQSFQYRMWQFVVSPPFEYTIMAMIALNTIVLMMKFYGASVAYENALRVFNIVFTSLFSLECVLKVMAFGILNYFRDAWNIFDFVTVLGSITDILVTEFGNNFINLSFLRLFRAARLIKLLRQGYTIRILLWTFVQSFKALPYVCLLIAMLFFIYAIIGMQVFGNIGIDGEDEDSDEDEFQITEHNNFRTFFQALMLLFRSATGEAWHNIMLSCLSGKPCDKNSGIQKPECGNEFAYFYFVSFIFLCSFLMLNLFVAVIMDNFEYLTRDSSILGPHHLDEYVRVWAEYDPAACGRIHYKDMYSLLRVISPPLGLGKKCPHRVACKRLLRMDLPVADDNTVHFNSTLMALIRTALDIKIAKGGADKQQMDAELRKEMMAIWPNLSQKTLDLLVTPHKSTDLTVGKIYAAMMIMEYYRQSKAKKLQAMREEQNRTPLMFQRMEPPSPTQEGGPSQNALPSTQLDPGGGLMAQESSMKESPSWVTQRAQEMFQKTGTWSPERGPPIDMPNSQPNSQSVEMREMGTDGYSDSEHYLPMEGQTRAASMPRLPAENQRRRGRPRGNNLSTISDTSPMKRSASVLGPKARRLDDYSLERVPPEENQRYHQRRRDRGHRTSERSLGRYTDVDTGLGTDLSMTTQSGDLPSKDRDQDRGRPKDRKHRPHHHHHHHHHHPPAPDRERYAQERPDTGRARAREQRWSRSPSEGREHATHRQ", "assay_type": "binding"}, "[5]": {"molecular_target": "N-type voltage-sensitive calcium channel (rat brain membrane) (rat) (UniProt Q02294)"}, "[6]": {"molecular_target": "endoproteinase Glu-C (Endo Glu-C) (Staphylococcus aureus, UniProt P0C1U8)", "settings": "pH 8"}, "[7]": {"settings": "human, plasma"}}, "note": "Where two headings read alike, the source gives them in different places."}
{"compound": "GLPVCKGKGAKCSRIMYDCCTGSCRSGKCTRG [SEQ ID NO. 7]", "values": [{"measurement": "EC50", "setting": "[1]", "value": 1.08, "unit": "nM"}]}
{"compound": "CKGKGAKCSRLMYDCCTGSCRSGKCTRNGLPG [cyclo-MVIIA 1]", "values": [{"measurement": "EC50", "setting": "[1]", "value": 85, "unit": "nM"}]}
{"compound": "Gly Cys Cys Ser Asp Pro Arg Cys Asn Tyr Asp His Pro Glu Ile Cys Gly Gly Ala Ala Gly Gly [cVc1.1-6]", "values": [{"measurement": "inhibition of nicotine-evoked catecholamine release, activity relative to Vc1.1", "setting": "[2]", "value": "identical, within experimental error, to that of acyclic Vc1.1"}]}
{"compound": "χ-conotoxin MrIA-NH2 (peptide; other documents disagree on this pair)", "values": [{"measurement": "EC50", "setting": "[3]", "value": 1810, "unit": "nM"}, {"measurement": "log EC50", "setting": "[3]", "value": -5.74}, {"measurement": "EC50", "setting": "[4]", "value": 1470, "unit": "nM"}]}
{"compound": "CKGKGAKCSRLMYDCCTGSCRSGKCTRNG [cyclo-MVIIA 2]", "values": [{"measurement": "ability to displace 125I-MVIIC", "setting": "P/Q type Ca channels", "value": "did not show any ability to displace"}, {"measurement": "selectivity N-type over P/Q-type channel", "setting": "P/Q type Ca channels", "value": "selectivity for the N-type channel over the P/Q-type channel"}]}
{"compound": "[Sec5,10]MrIA-NH2 (peptide; other documents disagree on this pair)", "values": [{"measurement": "EC50", "setting": "[3]", "value": 1380, "unit": "nM"}, {"measurement": "log EC50", "setting": "[3]", "value": -5.86}]}
{"compound": "ω-conotoxin MVIIA (peptide)", "values": [{"measurement": "EC50", "setting": "[5]", "value": 0.044, "unit": "nM"}]}
{"compound": "CC(C)C[C@@H]1NC(=O)[C@H](CC(N)=O)NC(=O)[C@H](CO)NC(=O)[C@H](Cc2cnc[nH]2)NC(=O)[C@H](CCC(=O)O)NC(=O)[C@H](CC(C)C)NC(=O)[C@H](Cc2cnc[nH]2)NC(=O)[C@@H]2CSSC[C@H](NC(=O)CN)C(=O)N[C@@H](CSSC[C@@H](C(N)=O)NC1=O)C(=O)N[C@@H](CO)C(=O)N[C@@H](CC(N)=O)C(=O)N1CCC[C@H]1C(=O)N[C@@H](C(C)C)C(=O)N2", "note": "[MII, α-conotoxin MII]", "values": [{"measurement": "half-life", "setting": "[6]", "value": "~10", "unit": "h"}, {"measurement": "half-life", "setting": "[7]", "value": "~16", "unit": "h"}]}
